Measured values from patent publication US20240416143A1, “PHOTONIC ANTIMICROBIAL WOUND SURFACE DRESSING” (The General Hospital Corporation, priority 2021, published 2024).
Like-named read-outs stand apart in the source and are kept apart here.

Experiments:
[1] = test system: E. coli biofilms in ex-vivo explants; assay: Photoinactivation of biofilms in ex vivo porcine partial thickness wounds by menadione + aBL; type: cell-based, Escherichia coli
Protocol: Skin was handled and sanitized with 70% isopropanol solution after hair shaving. The explants and inner wounds were created using a 12 mm and 4 mm biopsy punches respectively. The explants were placed in 12 wells plates using a (8 μm pore) inserts (Corning™ Falcon™). 1 mL of DMEM media was added to each well in the plate before the insert. After 24 hours, the inner wounds in the explants were inoculated with 20 μL of 10^8 CFU/mL of bacterial solution. After that, the explants were incubated at 37° C. and 5% CO2 for 48 hours to ensure the growth of a mature bacterial biofilm. The inner wounds of the explants were replenished daily with fresh BHI media to ensure that the wounds are hydrated.
48 hours following the inoculation, mature monobacterial biofilms of MRSA, P. aeruginosa, and E. coli were obtained with 8.00 log10 CFU/g per wound bed on each explant. MRSA biofilms in explant were reduced by 0.81 log10 CFU/g after the treatment of just aBL 250 J/cm^2 (50 mW/cm^2). However, MRSA biofilms in ex-vivo porcine skin were reduced by up to 4.18 log10 CFU/g when treated with aBL combined with menadione (200 μg/mL). For MRSA biofilms, the log reduction of mature monobacterial biofilm increased as the menadione concentration increased (see FIGS. 16A-16B). […]

E. coli = assay: Photoinactivation of planktonic cultures by menadione + antimicrobial blue light; type: cell-based, Escherichia coli ATCC 25922; conditions: menadione ⅛ MIC + aBL 90 J/cm^2 (50 mW/cm^2), 405 nm
Protocol: The bacterial cells were grown in BHI broth medium shaken overnight. Cells were collected by centrifugation at 4,000 rpm for 5 minutes and suspended in PBS at a density of 10^8 colony-forming units (CFU)/mL (estimated by measuring the optical density at 600 nm; O.D 0.1=10^8 cells/mL). The microbial suspension in PBS was transferred to a 35×12-mm dish and mixed with different concentrations of menadione: 0, 0.5, 1 and 2 μg/mL for MRSA USA300, AF003 and IQ0064; 0, 1, 10 and 30 μg/mL for P. aeruginosa PA01; and 0, 16, 32, 64 and 128 μg/mL for E. coli ATCC 25922. After incubation in the dark at 25° C. for 1 hour, the planktonic suspension of cells at room temperature was irradiated using aBL (405 nm) at 50 mW/cm^2 with different radiant exposures (0-250 J/cm^2). During the aBL irradiation, 40 μL of samples were withdrawn every 15 minutes, and the CFUs were determined by 10-fold serial dilutions in PBS (10-1 to 10-7 dilution factors), plated on BHI agar plates as described previously [Ref. 17]. CFUs were counted after overnight incubation at 37° C. Experiments were performed in triplicate.

MRSA [2] = assay: MIC of menadione by broth microdilution, with or without aBL; type: cell-based, methicillin-resistant Staphylococcus aureus; conditions: for MIC: Staphylococcus aureus, MRSA, light or radiation study
Protocol: (§1) The MICs of menadione in different bacterial strains were determined by a standard broth microdilution assay according to the Clinical and Laboratory Standards Institute. Briefly, menadione was prepared at 100 mg/mL in Tween 80/DMSO (1:1) as a stock solution. The stock solution was diluted to 2048 μg/mL in BHI and then serial dilutions were performed to 1024-0.015 μg/mL in a 96-well plate. Then, a 10 μL stationary growth-phase culture of 10^8 CFU/mL bacteria in BHI broth was added to the 96-well plate containing the serial dilutions of menadione. The medium containing a similar amount of Tween 80/DMSO (1:1) served as a control. The microplates were incubated at 37° C. for 24 hours and the lowest concentration of the compound capable of completely inhibiting bacterial growth was referred to as the MIC.
(§2) However, we investigated the effects of aBL (50 mW/cm^2) in potentiating the antibacterial activities of menadione in the three strains of bacteria. […] The highest fluence that we investigated was 125 J/cm^2, when we irradiated the bacteria for 42 minutes.

MRSA [3] = assay: Singlet oxygen assay (SOSG) in bacteria; type: cell-based, methicillin-resistant Staphylococcus aureus; conditions: 10 μg/mL menadione, 200 J/cm^2
Protocol: 1.2.9.2 Singlet oxygen ^1O2 assay: The singlet oxygen was measured by Singlet Oxygen Sensor Green Reagent (SOSG) (Thermofisher). In the presence of singlet oxygen, SOSG emits a green fluorescence similar to that of fluorescein (excitation/emission maxima ˜504/525 nm). The MRSA were grown in BHI broth medium with shaking overnight. Cells were collected by centrifugation at 4,000 rpm for 5 minutes and resuspended in PBS in the stationary growth phase culture of 1×10^8 CFU/mL. The microbial suspension was transferred to a 35×12-mm dish, mixed with 10 μg/mL of menadione, and stained with 10 μM SOSG solution per the manufacturer's instruction. The bacteria were irradiated with the blue light at 50 mW/cm^2 and the samples were collected each 15 minutes to be analyzed by Microplate Spectrofluorometer (SPECTRAmax®, Molecular Devices, USA) at λex=504 nm and λem=525 nm. The control and the menadione/dark groups were generated under the same conditions without irradiation.

P. aeruginosa = assay: MIC of menadione by broth microdilution, with or without aBL; type: cell-based, Pseudomonas aeruginosa PA01
Protocol: as §1, §2

## CC1=CC(=O)c2ccccc2C1=O [menadione, 2-methyl-1,4-naphthoquinone]
[1]
  response of biofilms to aBL and menadione: did not respond
E. coli
  eradication by aBL combined with menadione: 6 log10
MRSA [2]; 5 min, aBL 15.62 J/cm^2 (5 mins.), 50 mW/cm^2
  MIC: 8 µg/mL
MRSA [2]; 0.175 h, aBL 31.25 J/cm^2 (10.5 mins.), 50 mW/cm^2
  MIC: 4 µg/mL
MRSA [2]; 0.35 h, aBL 62.5 J/cm^2 (21 mins.), 50 mW/cm^2
  MIC: 1 µg/mL
MRSA [2]; 0.7 h, aBL 125 J/cm^2 (42 mins.), 50 mW/cm^2
  MIC: 0.0625 µg/mL
MRSA [2]; 0 J/cm^2 (Dark)
  MIC: 8 µg/mL
MRSA [2]; aBL 125 J/cm^2 vs dark
  lowering of MIC by aBL: 78%
MRSA [3]
  singlet oxygen (SOSG), menadione+aBL vs aBL alone: 1.5 times
P. aeruginosa; Pseudomonas aeruginosa, light or radiation study, 5 min, aBL 15.62 J/cm^2 (5 mins.), 50 mW/cm^2, read-out: MIC
  MIC: 64 µg/mL
P. aeruginosa; Pseudomonas aeruginosa, light or radiation study, 0.175 h, aBL 31.25 J/cm^2 (10.5 mins.), 50 mW/cm^2, read-out: MIC
  MIC: 8 µg/mL
P. aeruginosa; Pseudomonas aeruginosa, light or radiation study, 0 J/cm^2 (Dark), read-out: MIC
  MIC: 1020 µg/mL
P. aeruginosa; aBL 62.5 J/cm^2 (21 mins.), 50 mW/cm^2
  MIC: complete eradication
P. aeruginosa; aBL 125 J/cm^2 (42 mins.), 50 mW/cm^2
  MIC: completely eradicated
